# Source: US20230141988A1, “PHARMACEUTICAL COMPOSITION FOR USE IN THE TREATMENT OF NEUROLOGICAL DISEASES” (Aclipse One Inc., priority 2020, published 2023)
# Values joined by “and” are separate entries in the source; they are usually repeats but may differ in a detail not shown here. Equal values may be shown once. Read-outs that look alike come from different tables or passages of the source.
# Columns and labels:
# [1] = Plasma and CSF pharmacokinetic study, single sublingual, oral or subcutaneous dose, male Beagle dogs; format: in vivo; conditions: male, beagle, dog; for AUC(0-inf): read-out: AUCinf
# Experimental: Animals were fed twice daily. […] Food was withheld until 4-hour post-dose.
# All blood samples were collected from a peripheral vessel.
# For CSF collection, a polypropylene tube was first weighted to accuracy of 0.1 mg (weight #1). CSF was collected in the tube and weighted again (weight #2). Total CSF weight was calculated by subtracting weight #1 from weight #2. Samples were kept on ice and protected from sunlight. Stabilizing agent (ascorbic acid 200 mg/mL) was added within 60 minutes in a proportion of 10% in CSF. Frozen CSF samples on dry ice were stored at −60° C. or lower until bioanalysis.
# All CSF samples were added with the equal volume of plasma. […] 30 μL supernatant was then mixed with 30 μL water, vortex-mixed well and centrifuged at 4° C.
# Dilution procedure description: Dilution factor as 5—An aliquot of 2 μL sample was added with 8 μL blank matrix.
# The flow rate was 0.6 mL/min. The injection volume was 3 μL. The following gradient was implemented: […]
# in vivo [2] = conditions: male, C57BL/6J, mouse
# Experimental: 9 male C57BL/6J mice following administration of a single subcutaneous dose of 4.40 mg/kg. The vehicle for the subcutaneous formulation contained “0.1% sodium metabisulfite solution”.
# (§1) Male C57BL/6J mice were purchased from Si Bei Fu Laboratory Animal Technology Co. Ltd (Beijing, China). The animals were about 8 weeks old with body weights of 20-30 g on the dosing date. The animals were housed in a 12-hour light/12-hour dark cycle environment and had free access to food and water. All animals were fasted overnight and fed after 4 hours collection.
# For group 1, plasma samples were collected from dorsal metatarsal vein at each time point after subcutaneous administrations.
# For plasma samples, about 30 μL or 300 μL of blood samples were collected from each animal via dorsal metatarsal vein or heart. These blood samples were placed into the tubes containing K2EDTA. And centrifugation at 3000 g for 10 minutes in a 4° C. centrifuge. The completion time from collection was less than 30 min. The stabilizing agent of ascorbic acid at 200 mg/mL was added in a proportion of 10% in plasma. The plasma samples were stored in a freezer at −75±15° C. prior to analysis. The completion time from collection was less than 60 min.
# For brain and CSF samples, The animals were fully exsanguinated with a rising concentration of CO2 gas prior to CSF and brain collection.
# For CSF collection, incision was made by scissors on the neck of the rats to expose the foramen magnum. A syringe fitted with a venoclysis needle was used to sample the CSF, the tip of the needle was inserted into the membrane of foramen magnum about 1-2 mm, and a negative pressure was applied by pulling a stopcock a small length of the syringe to extract CSF fluids into a tube. The stopcock was further actuated to until a sufficient amount of CSF was collected. There should be no blood in the CSF fluid. A stabilizing agent of ascorbic acid at 200 mg/mL was added in a proportion of 10% in CSF.
# For brain collection. Brain samples were collected at an adopted time point, and washed 3 times with cold saline, then dried with clean gauze and put into the weighed tube, quick frozen in an ice box and kept at −75±15° C. All brain samples were weighted and homogenized with phosphate buffered saline (PBS) by brain weight (g) to PBS volume (mL) ratio 1:3 before analysis. The stabilizing agent of ascorbic acid at 200 mg/mL was added in a proportion of 10% in grain homogenate. The actual concentration was the detected value multiplied by the dilution factor. Brain samples were collected at designed time point, quickly homogenized and kept at −75±15° C.
# Calibration standard working solutions were prepared at concentrations of 2, 5, 10, 20, 50, 100, 500, 1000, 5000 and 10000 ng/mL by serial dilution of the standard stock solution in 50% acetonitrile in water. Quality control working solutions at concentrations of 5, 10, 500 and 8000 ng/mL were prepared by serial dilution of the standard stock solution in 50% acetonitrile in water. These QC samples were prepared on the day of analysis in the same way as calibration standards.
# For plasma and brain samples, 3 μL of each calibration standard working solution (2, 5, 10, 20, 50, 100, 500, 1000, 5000 and 10000 ng/mL) was added to 30 μL of the blank C57BL/6J mouse plasma or brain homogenate (with 10% 200 mg/mL ascorbic acid) to achieve calibration standards of 0.2-1000 ng/mL (0.2, 0.5, 1, 2, 5, 10, 50, 100, 500, 1000 ng/mL) in a total volume of 33 μL. Quality Control (QC) samples at 0.5 ng/mL (low-1), 1 ng/mL (low-2), 50 ng/mL (mid), 800 ng/mL (high) for plasma were prepared independently for those used for the calibration curves. These QC samples were prepared on the day of analysis in the same way as calibration standards.
# in vivo [3] = conditions: male, cynomolgus monkey, po, 10 mg/kg, Plasma concentration, fed male Cynomolgus Monkeys
# Experimental: (§2) Three male Cynomolgus Monkeys were administrated a single oral dose at 10 mg/kg. The oral vehicle was 10% (w/v) HP-β-CD in water.
# (§3) Male Cynomolgus Monkeys were purchased from Topgene Biotechnology. The animals were 2-5 years old with body weights of 2.0-5.0 kg on the dosing date. The animals were housed in a 12-hour light/12-hour dark cycle environment and had free access to food and water.
# (§4) All animals for PO administration were fasted overnight prior to dosing and will be fed approximately 2 hours after dosing.
# (§5) Three male Cynomolgus Monkeys were assigned to this study. […] The dosing regimens and formulation (vehicle) compositions are described in the following table below:
# (§6) Animals were weighed prior to dose administration on the day of dosing for calculating the actual dose volume. The dosages were prepared as illustrated in the table below:
# (§7) Blood samples were taken at the following times:
# (§8) Whole blood samples were gently inverted several times to ensure anticoagulation then placed on wet ice prior to centrifugation. Within 30 minutes of collection, the samples were centrifuged at approximately 4,000×g (force) for 5 minutes at 2 to 8° C. to obtain plasma. The stabilizing agent, ascorbic acid at 200 mg/mL, was added in a proportion of 10% in plasma. The plasma samples were stored in a freezer at −75±15° C. prior to analysis. The completion time from collection was less than 60 min. The resultant plasma samples will be immediately separated divided into 2 aliquots (˜75 μL each) and transferred to cryogenic vial. Samples will be maintained on wet ice throughout processing, and stored in a freezer at −75±15° C. prior to analysis. Samples should be protected from ambient light (under sodium lamp).
# (§9) Calibration standard working solutions were prepared at concentrations of 2, 5, 10, 20, 100, 500, 1000, 5000, 10000 ng/mL by serial dilution of the standard stock solution in 1:1 acetonitrile:water. Quality control working solutions at concentrations of 5, 10, 20, 500 and 8000 ng/mL were prepared by serial dilution of the standard stock solution in 1:1 acetonitrile:water. The QC samples were prepared on the day of analysis in the same way as calibration standards.
# (§10) Samples were prepared with 5 μL of each calibration standard working solution (2, 5, 10, 20, 100, 500, 1000, 5000, 10000 ng/mL) added to 50 μL of the blank Cynomolgus Monkeys plasma to achieve calibration standards concentrations of 0.2, 0.5, 1, 2, 10, 50, 100, 500, 1000 ng/mL (relative to a 50-4, plasma aliquot). Quality Control (QC) samples at 0.5 ng/mL (low-1), 1 ng/mL (low-2), 2 ng/mL (low-3), 50 ng/mL (mid) and 800 ng/mL (high) for plasma were prepared independently for those used for the calibration curves.
# (§11) Total volumes of 55 μL of standards, 55 μL of QC samples and 55 μL of unknown samples (50 μL of plasma with 5 μL of 1:1 acetonitrile:water) were added to 200 μL of acetonitrile containing IS to precipitate proteins. Then the samples were vortexed for 30 sec. […] All of the samples were processed on ice.
# (§12) The LC-MS/MS system consisted of two Shimadzu LC-30AD pumps, a DGU-20A5R degasser, a Rack changer II and an AB Sciex Triple Quad 5500 LC/MS/MS mass spectrometer. Chromatographic separation was performed on Agilent ZORBAX XDB-Phenyl 5 μm (50×2.1 mm) at room temperature. The mobile phase was composed of A: 5% Acetonitrile/95% water (0.1% Formic acid); B: 95% Acetonitrile/5% water (0.1% Formic acid). The flow rate was 0.6 mL/min. The injection volume was 2 μL.
# (§13) A multiple reaction monitoring (MRM) method was selected for quantitative analysis. […] The instrument parameters were set as follows: ion spray voltage: 5500 V; curtain gas: 40 psi; ion source gas 1: 50 psi; ion source gas 2: 50 psi; temperature: 450° C. The compound dependent parameters are listed as follows:
# (§14) HPLC flow rate was set at 0.6 mL/min with the following conditions:
# in vivo [4] = conditions: male, SD, rat; for AUC(0-inf): AUCInf; for AUC(0-t): AUClast; for MRT inf: MRTInf
# Experimental: The vehicle for the IV, subcutaneous, PO and IN formulation contained “0.1% sodium metabisulfite solution”.
# Male SD rats were purchased from Si Bei Fu Laboratory Animal Technology Co. Ltd (Beijing, China). The animals were about 8 weeks old with body weights of 200-300 g on the dosing date. The animals were housed in a 12-hour light/12-hour dark cycle environment and had free access to food and water. All animals were fasted overnight and fed after 4 hours collection.
# Plasma samples were collected from jugular vein at each time point after IV, subcutaneous, PO and IN administrations.
# About 200 μL of blood samples were collected from each animal via jugular vein. These blood samples were placed into the tubes containing K2EDTA. And centrifugation at 3000 g for 10 minutes in a 4° C. centrifuge. The completion time from collection was less than 30 min. The stabilizing agent of ascorbic acid at 200 mg/mL was added in a proportion of 10% in plasma. The plasma samples were stored in a freezer at −75±15° C. prior to analysis. The completion time from collection was less than 60 min.
# Calibration standard working solutions were prepared at concentrations of 2, 5, 10, 20, 50, 100, 500, 1000, 5000 and 10000 ng/mL by serial dilution of the standard stock solution in 50% acetonitrile in water. Quality control working solutions at concentrations of 5, 10, 20, 500 and 8000 ng/mL were prepared by serial dilution of the standard stock solution in 50% acetonitrile in water. These QC samples were prepared on the day of analysis in the same way as calibration standards.
# For plasma samples, 2 μL of each calibration standard working solution (2, 5, 10, 20, 50, 100, 500, 1000, 5000 and 10000 ng/mL) was added to 20 μL of the blank SD rat plasma (with 10% 200 mg/mL ascorbic acid) to achieve calibration standards of 0.2-1000 ng/mL (0.2, 0.5, 1, 2, 5, 10, 50, 100, 500, 1000 ng/mL) in a total volume of 22 μL. Quality Control (QC) samples at 0.5 ng/mL (low-1), 1 ng/mL (low-2) and 2 ng/mL (low-3), 50 ng/mL (mid), 800 ng/mL (high) for plasma were prepared independently for those used for the calibration curves. These QC samples were prepared on the day of analysis in the same way as calibration standards. The total volumes of 22 μL of standards, 22 μL of QC samples and 22 μL of unknown samples (20 μL of unknown plasma (with 10% 200 mg/mL ascorbic acid) with 2 μL 50% acetonitrile) were added to 200 μL of acetonitrile containing IS to precipitate proteins. Then the samples were vortexed for 30 sec. After centrifugation at 4° C., 4700 rpm for 30 min, and supernatant was diluted 2 times with water, 10 μL of the diluted supernatant was injected into the LC-MS/MS system for quantitative analysis.
# All the samples were processed on ice.
# The LC-MS/MS system consisted of two Shimadzu LC-30AD pumps, a DGU-20A5R degasser, a Rack changer II and LCMS-8060 LC/MS/MS instrument mass spectrometer.
# OD-3R Particle size 3 μm 4.6 mm×150 mm column at room temperature. The mobile phase was composed of A: Water (5 mM Ammonium Acetate); B: Ethanol (5 mM Ammonium Acetate). The flow rate was 0.5 mL/min. The injection volume was 10 μL.
# A multiple reaction monitoring (MRM) method was selected for quantitative analysis. […] The instrument parameters were set as follows: ion spray voltage: 8060; heating gas flow: 10 L/min; interface temperature: 250° C.; DL temperature: 220° C.; heat block temperature: 400° C.; drying gas flow: 10 L/min.
# Data acquisition was performed by Lab Solutions version 5.89 Software (Shimadzu). All concentration data was reported with 3 significant figures. Data statistics were performed using Excel 2010 software.
# The linear trapezoidal algorithm was used for AUC calculation.
# [5] = plasma, fed male Cynomolgus Monkeys, PO 10 mg/kg, animal 168777C
# Experimental: as §2, §3, §4, §5, §6, §7, §8, §9, §10, §11, §12, §13, §14
# [6] = for AUC_%Extrap_obs: Mean, male C57BL/6J mice; for Brain concentration, Mean / Plasma concentration, Mean / CSF concentration / plasma concentration: male, C57BL/6J, mouse, in vivo, po, 25 mg/kg
# Experimental: as §1
# The formulation was freshly made prior to use. Preparation of formulation for oral dosing are as follows:
# For Group 1 and 2, blood, CSF and brain samples were collected from 3 mice at the following time points.
# Plasma samples: About 30 μL or 300 μL of blood samples were collected from each animal via dorsal metatarsal vein or heart. These blood samples were placed into the tubes containing K2EDTA. And centrifugation at 3000 g for 10 minutes in a 4° C. centrifuge. The completion time from collection was less than 30 min. The stabilizing agent of ascorbic acid at 200 mg/mL was added in a proportion of 10% in plasma. The plasma samples were stored in a freezer at −75±15° C. prior to analysis. The completion time from collection was less than 60 min.
# Brain and CSF Samples: The animals were fully exsanguinated with a rising concentration of CO2 gas prior to CSF and brain collection.
# For CSF collection, make an incision by scissors on the neck of the rats, and the foramen magnum is exposed to the sight of scientist. Use a syringe with a venoclysis needle to sample the CSF, the tip of the needle is insert into the membrane of foramen magnum about 1-2 mm, and then pull the stopcock a small length of the syringe to make a negative pressure, then the CSF fluids to the tube. Watch the fluid in the tube and pull the stopcock slowly, when the amount of the CSF is enough, stop and split the needle and the syringe to ensure there is no negative pressure in the tube. Then cut off the needle and collect the CSF fluid. If we could see the blood in the tube, stop immediately, split the needle and the syringe, and then cut off between the blood and CSF to ensure there is no blood in the CSF fluid. Then collect the CSF fluid. The stabilizing agent of ascorbic acid at 200 mg/mL was added in a proportion of 10% in CSF. The completion time from collection was less than 60 min.
# For brain collection. Brain samples were collected at adopted time point, and washed 3 times with cold saline, then dried with clean gauze and put into the weighed tube, quick frozen in ice box and kept at −75±15° C. All brain samples were weighted and homogenized with phosphate buffered saline (PBS) by brain weight (g) to PBS volume (mL) ratio 1:3 before analysis. The stabilizing agent of ascorbic acid at 200 mg/mL was added in a proportion of 10% in Brain homogenate. The actual concentration was the detected value multiplied by the dilution factor. Brain samples were collected at designed time point, quickly homogenized and kept at −75±15° C. The completion time from collection was less than 60 min.
# Calibration standard working solutions were prepared at concentrations of 0.2, 0.5, 1, 2, 5, 10, 50, 100, 500, 1000 ng/mL by serial dilution of the standard stock solution. These QC samples were prepared on the day of analysis in the same way as calibration standards.
# Plasma: The desired serial concentrations of working solutions were achieved by diluting stock solution of analyte with 50% acetonitrile in water solution. 10 μL of working solutions (0.1, 0.2, 0.5, 1, 2, 5, 10, 50, 100, 500, 1000 ng/mL) were added to 10 μL of the blank C57BL/6J Mice plasma to achieve calibration standards of 0.1˜1000 ng/mL (0.1, 0.2, 0.5, 1, 2, 5, 10, 50, 100, 500, 1000 ng/mL) in a total volume of 20 μL.
# [7] = 0.88 mg/kg, plasma concentration
# [8] = iv, 0.88 mg/kg, plasma concentration
# [9] = iv, 0.88 mg/kg, plasma concentration, Mean
smiles,measurement,setting,value
CN1CCc2cccc3c2[C@@H]1Cc1ccc(O)c(O)c1-3,Kp,"[1]; in vivo, AUClast ratio of CSF to total plasma, single SC 1 mg/kg, individual animal, read-out: AUC Ratio",1.48
same,AUC(0-t),"[1]; plasma, 5 mg/kg, male Beagle dogs (fasted), single SL 5 mg/kg, individual dogs",165 ng·h/mL
same,AUC(0-inf),"[1]; plasma, 5 mg/kg, male Beagle dogs (fasted), single SL 5 mg/kg, plasma, individual dogs",178 ng·h/mL
same,AUC(0-inf),"[1]; plasma, sc, 1 mg/kg, plasma, single SC 1 mg/kg, individual animal",115 ng·h/mL
same,concentration at 0.5 h,in vivo [2]; CSF concentration,9.59 ng/mL
same,concentration at […],in vivo [2]; CSF concentration,20.5 ng/mL
same,concentration at 0.5 h,in vivo [2]; plasma concentration,169 ng/mL
same,concentration at 1 h,in vivo [2]; plasma concentration,52 ng/mL
same,concentration at 2 h,in vivo [2]; plasma concentration,14.9 ng/mL
same,concentration at […],in vivo [2]; plasma concentration,760 ng/mL and 721 ng/mL
same,concentration at 0.5 h,"in vivo [2]; plasma concentration, Mean",187 ng/mL
same,concentration at 1 h,"in vivo [2]; plasma concentration, Mean",41 ng/mL
same,concentration at 2 h,"in vivo [2]; plasma concentration, Mean",18.7 ng/mL
same,concentration at […],"in vivo [2]; plasma concentration, Mean",970 ng/mL and 692 ng/mL
same,concentration at 0.5 h,in vivo [3]; animal 168777C,4.15 ng/mL
same,concentration at 0.5 h,in vivo [3]; animal 168779C,1.26 ng/mL
same,concentration at 0.5 h,in vivo [3]; animal 169939C,0.975 ng/mL
same,concentration at 1 h,"in vivo [3]; 1 h, animal 169939C",2.81 ng/mL
same,concentration at 2 h,in vivo [3]; animal 168777C,6.27 ng/mL
same,concentration at 2 h,in vivo [3]; animal 168779C,6.27 ng/mL
same,concentration at 4 h,in vivo [3]; animal 168779C,8.04 ng/mL
same,concentration at 4 h,in vivo [3]; animal 169939C,5.91 ng/mL
same,concentration at 8 h,"in vivo [3]; 8 h, animal 168777C",1.13 ng/mL
same,concentration at 0.5 h,in vivo [4],31 ng/mL
same,concentration at 1 h,in vivo [4],8.96 ng/mL
same,concentration at 2 h,in vivo [4],6.87 ng/mL
same,concentration at 8 h,in vivo [4],0.651 ng/mL
same,concentration at […],in vivo [4],114 ng/mL
same,concentration at […],in vivo [4]; 0.88 mg/kg,119 ng/mL
same,concentration at 2 min,in vivo [4]; [7],42.7 ng/mL
same,concentration at 0.5 h,in vivo [4]; [7],40.5 ng/mL
same,concentration at 1 h,in vivo [4]; [7],5.76 ng/mL
same,concentration at 2 h,in vivo [4]; [7],1.52 ng/mL
same,concentration at 8 h,in vivo [4]; [7],0.877 ng/mL
same,concentration at […],in vivo [4]; [7],162 ng/mL and 151 ng/mL and 107 ng/mL
same,AUC(0-inf),"in vivo [4]; iv, 0.88 mg/kg",86.6 ng·h/mL
same,AUC(0-t),"in vivo [4]; iv, 0.88 mg/kg",83.2 ng·h/mL
same,C0,"in vivo [4]; iv, 0.88 mg/kg, C0",527 ng/mL
same,clearance,"in vivo [4]; iv, 0.88 mg/kg, Cl",169 mL/min/kg
same,MRT inf,"in vivo [4]; iv, 0.88 mg/kg",1.26 h
same,Vd,"in vivo [4]; iv, 0.88 mg/kg, Vss",12.8 L/kg
same,concentration at 2 min,in vivo [4]; [8],353 ng/mL
same,concentration at 0.5 h,in vivo [4]; [8],17.8 ng/mL
same,concentration at 1 h,in vivo [4]; [8],7.6 ng/mL
same,concentration at 2 h,in vivo [4]; [8],4.32 ng/mL
same,concentration at 8 h,in vivo [4]; [8],0.88 ng/mL
same,concentration at […],in vivo [4]; [8],104 ng/mL
same,concentration at 2 min,in vivo [4]; [9],339 ng/mL
same,concentration at 0.5 h,in vivo [4]; [9],16.4 ng/mL
same,concentration at 1 h,in vivo [4]; [9],6.37 ng/mL
same,concentration at 2 h,in vivo [4]; [9],3.67 ng/mL
same,concentration at 8 h,in vivo [4]; [9],0.777 ng/mL
same,AUC(0-inf),"in vivo [4]; sc, 0.88 mg/kg",71.2 ng·h/mL
same,AUC(0-t),"in vivo [4]; sc, 0.88 mg/kg",70.2 ng·h/mL
same,Cmax,"in vivo [4]; sc, 0.88 mg/kg, Cmax",141 ng/mL
same,MRT inf,"in vivo [4]; sc, 0.88 mg/kg",0.873 h
same,AUClast/D,[5],4.26 mg·h/mL
same,AUC_%Extrap_obs,"[6]; CSF, last day (Day 4) of repeated oral dose 25 mg/kg",3.18%
same,AUC_%Extrap_obs,"[6]; brain, single oral dose 25 mg/kg",18.5%
same,"Brain concentration, Mean",[6]; 0.5 h,90 ng/g
same,"Plasma concentration, Mean",[6]; 0.5 h,453 ng/mL
same,"Brain concentration, Mean",[6]; 1 h,36.3 ng/g
same,CSF concentration,[6]; 1 h,3.06 ng/mL
same,"Plasma concentration, Mean",[6]; 1 h,153 ng/mL
same,"Brain concentration, Mean",[6]; 2 h,21.9 ng/g
same,"Brain concentration, Mean",[6]; 3 h,6.80 ng/g
same,"Plasma concentration, Mean",[6]; 3 h,48.2 ng/mL
same,CSF concentration,[6]; 4 h,3.42 ng/mL
same,plasma concentration,[6]; 8 h,0.599 ng/mL
same,plasma concentration,[6]; 12 h,0.150 ng/mL
